Where a name gives a salt, the structure may show the parent alone.
What was measured:
[1] = system: Ratten; test: Diuretic effect in rats, method of Lipschitz et al. (Na excretion score); format: in vivo; details: 20 mg/kg p.os, quotient of Na excretion after test substance to Na excretion of control
Text: Diese Untersuchung an Ratten wurde nach der Methode von Lipschitz et al., j.p.e.t. 79, 97-110, 1954, durchgeführt.
Der errechnete Score entspricht einem Quotienten aus Na-Ausscheidungen nach der Testsubstanz durch Na-Ausscheidung des Kontroll-Leerwertes.
Die Untersuchung an Ratten wurde wie unter 1. durchgeführt. Für den diuretischen Wirkungs-Score gilt gleiches.

[2] = system: Meerschweinchen-Lungenpräparat; test: Bronchodilator effect on guinea pig lung preparation (perfusion flow rate); details: in vitro, 100 µg/ml
[3] = system: Agonisten (Atropin); test: Anticholinergic effect in vitro, guinea pig; parameters: species or system Meerschweinchen; details: 10 µg/ml
Experimental: In vitro ergab sich am Meerschweinchen mit einer Dosis von 10 µg/ml eine mehr als 80 %ige Hemmung des verwendeten Agonisten (Atropin).

[4] = system: Maus; test: Acute toxicity in the mouse (new caroverine salts); format: in vivo; details: for Akute Toxizität, observation: in vivo; for Letale Dosis: mouse, i.p.
Experimental: Letale Dosis: • 200 mg/kg i.p..

[5] = system: Thrombozytenaggregation; test: Collagen-induced platelet aggregation, same method on human blood preparations; format: cell-based, menschlichem Blut; details: same method as with rabbit plasma
[6] = Acute toxicity (LD50) in male mice; details: mouse, in vivo
Text: Untersuchung der akuten Toxizität an männlichen Mäusen
Es wurden folgende Standard-Grenzwerte LDSO (mg/kg) ermittelt:
Toxizitätsuntersuchung an männlichen Mäusen

[7] = system: anemische Decerebrationsstarre; test: Inhibition of anemic decerebrate rigidity in rats, method of Fukuda et al.; format: in vivo, Wister-Ratten; details: male rats, i.v.; for ED50: Rattus norvegicus, iv, read-out: Dosis für 50%ige Inhibierung; for ED50 / Zeit für 50%ige Erholung: anemic decerebrate rigidity
Text: Die Untersuchungen wurden ausgeführt nach der Methode von Fukuda et al. (Japanese Journal of Pharmacology, Band 24, Seiten 810 - 813, 1974).
Es wurden männliche Wister-Ratten mit einem Köpergewicht von 280 - 380 g verwendet. Die Tiere wurden mit Aether betäubt und am Rücken befestigt. Nach Freilegen der Luft- und Speiseröhre sowie der beiderseitigen, gemeinsamen Carotisarterien wurde die Luftröhre kanüliert und die Speiseröhre abgetrennt. Das Hinterhauptbein wurde durch Abschaben der anhängenden Muskulatur freigelegt. Nach beidseitigem Abbinden der gemeinsamen Carotisarterien wurde im mittleren Teil des Hinterhauptbeines eine Oeffnung von 5 mm Durchmesser trepaniert, um die Basilararterie sichtbar zu machen. Die dura mater wurde längs der Basilararterie durchschnitten und letztere mit einem Coagulator ausgeätzt. Unmittelbar nach Beendigung dieser Massnahmen wurde die Anästhesie unterbrochen. Innerhalb von 30-min entwickelte sich Starre, und es trat eine deutliche Streckung der Extremitäten, des Nackens und des Schwanzes ein. Die Streckung der Vordergliedmassen wurde mit einem Dehnungsmessstreifen erfasst. 50 min nach Erholung von der Betäubung wurden in Salzlösung aufgelöste Pharmaka durch eine in die Oberschenkelvene eingeführte Kanüle intravenös zugeführt. Die verwendeten Pharmaka waren Caroverinfumarat und Referenz-Agenzien, nämlich Mephenesin und Tolperison-Hydrochlorid. Das Ergebnis nach Zuführung von 2 mg/kg Caroverinfumarat sind in der nachstehend eingefügten Tabelle wiedergegeben.

[8] = system: Thrombozytenaggregation; test: Collagen-induced platelet aggregation in platelet-rich plasma, turbidimetry; format: cell-based, Kaninchen
Text: Thrombozytenreiches Plasma wurde aus citriertem Kaninchenblut gewonnen. Die Thrombozytenaggregation wurde durch Collagen aus Rinder- Achillessehnen induziert, worauf der Aggregations-Hemmeffekt durch optische Trübungsmessung (Turbidimetrie) untersucht und quantifiziert werden konnte.
Bei diesen Diagrammen handelt es sich um Aufnahmen des zeitlichen Verlaufes einer optischen Messgrösse als Mass eines durch das Präparat tretenden Lichtanteils, entsprechend einem reziproken Mass für den Agglutinations- oder Aggregationsgrad. Die verschiedenen Messkurven für je eine Wirksubstanz entsprechen unter- schiedlichen molaren Konzentrationen in Mikromol des Wirkstoffes als Parameter. Die erste Messkurve in Fig. 1 entspricht einem Kontroll-Leerversuch.

[9] = system: Hunden; test: Coronary sinus outflow, systemic blood pressure and heart rate in dogs; format: in vivo; details: dogs, 0,03-3,0 mg/kg, effect increases with dose (Fig. 4-6)
Experimental: Es wurde der coronare Sinus-Ausfluss(CSF), der System-Blutdruck (SEP) und die Herzfrequenz (HR) an Hunden untersucht. Für den coronaren Sinus-Ausfluss wurde die in Clin. Pharmacol. Physiol., 5, 107 - 115, 1978, Australien,beschriebene Untersuchungsmethode angewendet.
Zeitdiagramme der genannten Messgrössen SBP (mmHg), CSF (ml/min) und HR (min ) wurde für […] verschiedene Dosierungen von Caroverinfumarat, nämlich 0,03, 0,1, 0,3, 1,0 und 3,0 mg/kg (bezogen auf das Körpergewicht) aufgenommen. Die Diagramme für die drei erstgenannten Dosierungswerte sind in Fig. 4 und diejenigen für die beiden letztgenannten Dosierungswerte in Fig. 5 bzw. Fig. 6 wiedergegeben. Der Zuführungszeitpunkt der Wirksubstanz ist in den Diagrammen gemäss Fig. 4 durch das Zeichen "o" markiert, während in den Diagrammen gemäss Fig. 5 und 6 das Zuführungsintervall jeweils durch einen Horizontalstrich unterhalb der CSF-Messkurve angegeben ist.

[10] = system: Herzfrequenz; test: Clinical study: heart rate under stepwise i.v. dosing, treatment groups A, B, C; format: in vivo, Menschen
Text: • a) Anzahl: je 6 Patienten der Gruppen A, B und C. Die Probandenzahl der Gruppe D hängt davon ab […] hoc finden. • b) Die […] des Prüfers. • c) Kontraindikationen […], die nicht für eine klinische Studie mit Ca-Antagonisten geeignet sind, oder unter […] leiden, die die Resultate […]. Die […] 10 und 5' vor Beginn der Medikation. […] Nach Beendigung der Medikation, Nachkontrolle in 10-[…] bis ca. 4 Stunden nach Beginn der Medikation. Abbruch der Medikation bei: • 1) AV-Block 1. […] In einem ersten Schritt wurden die Zeitreihen (Herzfrequenz-Mittelwerte und Streuungen) je Behandlungsgruppe einzeln berechnet und graphisch dargestellt (s. Abbildung und […], die […] auch […] und der 3 Stunden Nachbeobachtung unterscheiden. Es ist ebenfalls festzuhalten, dass die Werte zu Beginn der Applikation gegenüber den Vorwerten durchwegs erhöht sind. Um die Herzfrequenz-Verläufe […] zu […] Differenzen der Mittelwerte zu jedem […] zu den Vorwerten als auch zum Wert bei […] und […] - unter […] und […] - auf Signifikanz geprüft.

[11] = system: Patienten mit Arrhythmia absoluta
Experimental: Bei insgesamt 6 Patienten (5♀, 1 ♂) mit Arrhythmia absoluta wurden innerhalb 3 - 5 Min. 200 mg Caroverinfumarat i.v. verabreicht. […] Mittleres Alter der Probanden war 65 (+6/-11) Jahre. Registriert wurden EKG (Frequenz) und Blutdruck (Riva-Rocci) bis max. 13 Minuten nach Injektionsbeginn. Die Min.-Frequenz ermittelte sich aus 10 aufeinanderfolgenden QRS-Komplexen.

[12] = system: isolierte, nach Langendorff perfundierte Meerschweinchenherz; test: Isolated Langendorff-perfused guinea pig heart: coronary flow, contraction amplitude, heart rate; parameters: species or system Meerschweinchen; details: for Herzfrequenz: in all experiments; for Coronardurchfluss: single doses Caroverin 1-1000 ug, Theophyllin 10-1000 ug, 1000 Theophyllin about equal to 100 Caroverin
Text: Meerschweinchen wurden durch Genickschlag getötet, der Thorax eröffnet, der Herzbeutel aufgeschnitten, die Aorta mit einem Faden angeschlungen und in der pars ascendens angeschnitten. Nach Einbinden einer Glaskanüle in die Aorta wurde die aorta pulmonalis eröffnet und anschliessend das Coronargefässsystem durch die Aortenkanüle unter leichten Druck mit einer Spitze durchgespült. Nach Dulchirennung aller anhängenden Gefässe wurde das Herz an der Aortenkanüle in die feuchte Kammer einer modifizierten Langendorff-Apparatur gehängt und mit carbogengesättigter Tyrodelösung von 37^uC mit einem Druck von 55 cm H20 perfundiert. An der Herzspitze wurde eine Serre fine angebracht, die über einen Faden mit einem zweiarmigen Hebel verbunden war, der die Kontraktionsamplitude auf einem Russkymographen aufzeichnete. Alle Herzen waren mit 4 g belastet. Der Schreibhebel passierte bei seinen Ausschlägen die Lichtschranke einer Fotozelle. Dadurch konnte die Herzfrequenz über einen Totalisator (nach FLEISCH, Firma B. Braun, Melsungen) registriert werden. Die aus dem rechten Vorhof frei abfliessende Perfusionslösung tropfte auf einen elektrischen Kontakt. Die Tropfenzahl wurde mittels eines zweiten Totalisators aufgezeichnet,und nach Eichung in ml/min der Coronardurchfluss bestimmt.
Nach Fertigstellung der Präparate wurde bis zum Versuchsbeginn 45 Min. gewartet. Nach dieser Zeit hatten Kontaktionsamplitude, Frequenz und Coronardurchblutung ein konstantes Niveau erreicht.
Caroverin wurde in Einzeldosen von 1, 10, 100 sowie 1000 ug verabreicht. Theophyllin wurde in Dosen von 10, 100 sowie 1000 ug gegeben. In allen Versuchen wurden Caroverin und Theophyllin abwechselnd verabreicht, wobei jeweils eine Zeitspanne von 5 Min. zwischen zwei Einzelinjektionen lag. Alle Injektionsvolumina betrugen 0.1 ml.
Die Effekte der Substanzen wurden ermittelt,indem in jedem Versuch bei jeder Einzeldosis die maximalen Zu- bzw. Abnahmen der entsprechenden Parameter gegenüber dem jeweiligen Ausganswert bestimmt und diese Einzeleffekte gemittelt wurden. Statistische Signifikanzberechnungen erfolgten nach dem t-Test (student's-Test).

[13] = system: K^+-Kontraktur isolierter Coronararterienstreifen; test: K+ contracture of isolated pig coronary artery strips; parameters: species or system Schwein
Text: Partielle Restitution der mechanischen Spannungsentwicklung durch Extra-Calcium.

[14] = system: Ca^++-Einstrom; test: Isolated guinea pig papillary muscle: intracellular action potentials and isometric mechanograms; parameters: species or system Meerschweinchen
Text: Die Aktionspotentiale […] an ein und derselben Myocardfaser gewonnen. Die einzelnen Konzentrationen kamen jeweils für die Dauer von 40 Minuten zur Anwendung.

[15] = system: glatten Coronar-Muskulatur; test: k-Strophanthin-induced tone of pig coronary smooth muscle; parameters: species or system Schwein; details: higher concentration of k-Strophanthin, partial restitution by raised extracellular Ca++ (Fig. 15)
Text: Teilweise Restitution des Coronartonus durch Steigerung der extra-cellulären Ca^++-Konzentration.

[16] = group B, ca. 70 min after start of application
[17] = group C, 2 1/2 to 3 h after start of application

CCN(CC)CCn1c(=O)c(Cc2ccc(OC)cc2)nc2ccccc21 [Caroverin-Theophyllinat]
diuretischer Wirkungs-Score ([1]; 20 mg/kg): 2.8
Perfusions-Fliessrate [2]: eindeutige Zunahme der Perfusions-Fliessrate
Hemmung des verwendeten Agonisten (Atropin) [3]: > 80%
Akute Toxizität, observation ([4]; 300 mg/kg): keine Auffälligkeiten
Akute Toxizität, observation ([4]; ip, 100 mg/kg): leichte Muskelrelaxation
Letale Dosis [4]: 200 mg/kg

CCN(CC)CCn1c(=O)c(Cc2ccc(OC)cc2)nc2ccccc21 [Caroverinfumarat]
Aggregations-Hemmeffekt [5]: Aehnliche Ergebnisse
LD50 ([6]; intravenous): 39 mg/kg
LD50 ([6]; ip, intraperitoneal): 138 mg/kg
LD50 ([6]; oral): 800 mg/kg
ED50 [7]: 1.5 mg/kg
Zeit für 50%ige Erholung [7]: > 30 min
anemische Decerebrationsstarre ([7]; stronger and longer lasting than Tolperison-Hydrochlorid and Mephenesin): unverzüglich aufgehoben
Aggregations-Hemmeffekt ([8]; rabbit platelet-rich plasma, collagen from bovine Achilles tendon, several micromolar concentrations (Fig. 1-3), intensity between Benzyclanfumarat and Aspirin): eindeutigen Hemmungseffekt
Herzfrequenz (HR) [9]: Herabsetzung der Herzfrequenz
System-Blutdruck (SBP) [9]: Herabsetzung des System-Blutdrucks
coronarer Sinus-Ausfluss (CSF) [9]: Rasch zunehmende und langsam abklingende Zunahme des coronaren Sinus-Ausflusses
mittlere Herzfrequenz, % of value before application ([10]; group A (heart-healthy), end of application after 40 min): 86%
mittlere Herzfrequenz ([10]; group A (heart-healthy), end of application after 40 min, 20 mg i.v. then 10 mg every 4 min up to 120 mg, baseline 72/Min.): 62 min⁻¹
mittlere Herzfrequenz, % of value before application ([10]; group A, 2 h after start of application): 79%
mittlere Herzfrequenz ([10]; group A, 2 h after start of application, lasting to end of 4 h observation): 57 min⁻¹
mittlere Herzfrequenz, % of value before application ([10]; group B (coronary heart disease), end of application): 90%
mittlere Herzfrequenz ([10]; group B (coronary heart disease), end of application, baseline 77/Min.): 69 min⁻¹
mittlere Herzfrequenz [10, 16]: 65 min⁻¹
mittlere Herzfrequenz, % of value before application [10, 16]: 84%
mittlere Herzfrequenz, % of value before application ([10]; group C (diseased conduction system), end of application): 86%
mittlere Herzfrequenz ([10]; group C (diseased conduction system), end of application, baseline 66/Min.): 57 min⁻¹
mittlere Herzfrequenz [10, 17]: 54 min⁻¹
mittlere Herzfrequenz, % of value before application [10, 17]: 82%
Vorhofflimmer-Frequenz ([11]; 6 patients, 200 mg i.v.): ohne messbare Veränderung
rhythmisierender Effekt ([11]; 6 patients, 200 mg i.v.): nicht nachgewiesen
maximale systolische Blutdruckabfall ([11]; 6 patients, 200 mg i.v. within 3-5 min): 29,3 (+ 8,2/-9,3) %
diastolische Blutdruckabfall ([11]; mean of 6 patients, 200 mg i.v. within 3-5 min): 26,6 (+ 10,9/-11,6) %
maximale Frequenz-Abfall im Vergleich zum Ausgangswert ([11]; mean of 6 patients, 200 mg i.v. within 3-5 min, up to 13 min after start of injection): 26,6 (+ 7,2/-4,7) %

CCN(CC)CCn1c(=O)c(Cc2ccc(OC)cc2)nc2ccccc21 [Caroverin-Nicotinat]
diuretischer Wirkungs-Score ([1]; 20 mg/kg): 2.6
Perfusions-Fliessrate [2]: eindeutige Zunahme der Perfusions-Fliessrate
inhibition at 10 µg/mL ([8]; Oryctolagus cuniculus, Platelet, in vitro, rabbit, 10 mcg/ml, read-out: Hemmung der collagen-induzierten Plättchenaggregation): 100%
Hemmung des verwendeten Agonisten (Atropin) [3]: > 80%
Akute Toxizität, observation ([4]; 300 mg/kg): keine Auffälligkeiten
Akute Toxizität, observation ([4]; ip, 100 mg/kg): Abnahme des Muskeltonus in den Extremitäten, sowie eine leichte Abnahme des Haltegriffes
Letale Dosis [4]: 200 mg/kg

CC(=O)S[C@@H]1CC2=CC(=O)CC[C@]2(C)[C@H]2CC[C@@]3(C)[C@@H](CC[C@@]34CCC(=O)O4)[C@H]12 [Spironolacton, reference compound]
diuretischer Wirkungs-Score [1]: 3.6

Cc1ccccc1OCC(O)CO (centres unmarked) [Mephenesin]
ED50 [7]: 25 mg/kg
Zeit für 50%ige Erholung [7]: ca 13 min.

Cc1ccc(C(=O)C(C)CN2CCCCC2)cc1 (centres unmarked) [Tolperison-Hydrochlorid]
ED50 [7]: 4 mg/kg
Zeit für 50%ige Erholung [7]: ca. 10 min.

Cn1c(=O)c2[nH]cnc2n(C)c1=O [Theophyllin, reference compound]
Herzfrequenz ([12]; 1000pg as printed): die Herzfrequenz vorübergehend steigerte
Kontraktionsamplitude ([12]; doses used (10, 100, 1000 ug)): keine signifikanten Aenderungen der Kontraktionsamplitude
Coronardurchfluss [12]: steigernde Wirkung auf den Coronardurchfluss

CCN(CC)CCn1c(=O)c(Cc2ccc(OC)cc2)nc2ccccc21 [Caroverin, 1-(2-diäthylaminoäthyl)-3-(p-methoxybenzyl)-1,2-dihydroquinoxalon-2]
Herzfrequenz ([12]; 100 µg): langanhaltenden frequenzsenkenden Effekt
Kontraktionsamplitude ([12]; 100 µg, p < 0.01): verminderte die Kontraktionsamplitude signifikant
Coronardurchfluss [12]: dosisabhängige, coronardurchflusssteigernde Wirkung
inhibition at 0.25 µg/mL ([13]; Sus scrofa, pig, 0,25 mg Caroverin/l (Fig. 13 and 14), read-out: elektromechanische Entkoppelung K^+-depolarisierter Coronararterienstreifen): ~50%
K^+-Kontraktur isolierter Coronararterienstreifen ([13]; pig, rising concentrations 0,05, 0,1 and 0,5 mg/l, partial restitution by extra calcium (Fig. 13)): Hemmungen der K^+-Kontraktur
K^+-Kontraktur isolierter Coronararterien-Streifen ([13]; pig, rising concentrations 1,0, 2,0 and 5,0 mg/l, partial restitution by extra calcium at 1 mg/l (Fig. 14)): Hemmung der K^+-Kontraktur
elektrische Parameter Ca^++-getragener Aktionspotentiale (AP-Amplitude, max. Aufstrichsteilheit, AP-Dauer) und zugehörige Mechanogramme ([14]; about the same concentration range (10 mg/l)): hemmt
Blockade des Ca^++-Einstroms während der Erregung ([14]; electrically stimulated isolated guinea pig papillary muscle, 10 mg Caroverin/l (Fig. 12)): ~50%
transmembranäre Na- und K^+-Fluxe ([14]; isolated guinea pig papillary muscle, 10 mg Caroverin/l): ohne die transmembranären Na - und K^+-Fluxe zu reduzieren
tonussteigernde Effekte von k-Strophanthin [15]: Neutralisation der tonussteigernden Effekte

From patent publication EP0032564A1, “Pharmaceutical use of caroverine and/or salts of caroverine, as well as salts of caroverine with xanthine acid remainders and nicotinic acid remainder” (MEDICHEMIE AG, priority 1979, dated 1981)
